Laboratory results reported in patent US10344035B2, “Salt of quinolone compound, polymorphs thereof, preparation method therefor, composition, and applications” (SHANGHAI PHARMACEUTICALS HOLDING CO., LTD., priority 2015, dated 2019).
Structures can show the parent of a compound that is named as a salt.

Assay: Pharmacokinetic study in rats
Conditions: for concentration at 60 min / concentration at 90 min / concentration at 120 min / concentration at 240 min / concentration at 360 min / concentration at 480 min / concentration at 720 min / concentration at 1440 min / concentration at 5 min / concentration at 15 min / concentration at 30 min: oral, 20 μmol/kg, intragastric 20 μmol/kg
Protocol: All stock solutions of the test compound were sonicated and heated to become clarified and formulated to a 25 mM solution with DMSO.
All samples were dosed at 20 μmol/kg.
The blood sample was centrifuged at 8000 rpm for 5 min, the plasma was collected in a centrifuge tube and stored at −20° C. for use.
Treatment of the plasma sample: the proteins in 50 μL plasma sample were precipitated with 200 μL acetonitrile containing internal standard (Propranolol (PRO), 2.5 ng/mL). Vortexed for 10 min, centrifuged at 6000 g for 10 min, the supernatant was taken and 5-fold diluted with the mobile phase, and the supernatant was injected into a 96-well plate for analysis.
flow rate: 0.3 mL/min; injection volume: 2 μL; column temperature 45° C. The gradient elution procedure was: […]
The ion source was an electrospray ionization source (Turbo Ionspray, ESI); the electrospray voltage was 5500V; the temperature was 500° C.; pressure of ion source gas 1 (N2) was 50 psi; pressure of ion source gas 2 (N2) was 50 psi; pressure of curtain gas (N2) 20 psi; pressure of collision gas (CAD) was Medium; scan time was 100 ms; positive ion mode detection; scan mode was multiple reaction monitoring (MRM), ion reaction and collision energy (CE) for quantitative analysis, declustering potential (DP) are shown in the following table: […]

[1] = SD (Sprague-Dawley), rat, plasma, Plasma concentration Mean, SD rats, mean of 3 rats
[2] = SD (Sprague-Dawley), rat, plasma, Plasma concentration Rat1, SD rats, Rat1
[3] = SD (Sprague-Dawley), rat, plasma, Plasma concentration Rat 2, SD rats, Rat 2
[4] = SD (Sprague-Dawley), rat, plasma, Plasma concentration Rat 3, SD rats, Rat 3
[5] = SD rats, intragastric, 20 umol/kg
[6] = SD, rat, plasma, Plasma concentration Mean, SD rats, mean of 3 rats
[7] = SD, rat, plasma, Plasma concentration Rat1, SD rats, Rat1
[8] = SD, rat, plasma, Plasma concentration Rat 2, SD rats, Rat 2
[9] = SD, rat, plasma, Plasma concentration Rat 3, SD rats, Rat 3

- concentration at 60 min [1]: 910 nM
- concentration at 90 min [1]: 730 nM
- concentration at 120 min [1]: 600 nM
- concentration at 240 min [1]: 430 nM
- concentration at 360 min [1]: 180 nM
- concentration at 480 min [1]: 80 nM
- concentration at 720 min [1]: 30 nM
- concentration at 1440 min [1]: 10 nM
- concentration at 5 min [2]: 15.3 nM
- concentration at 60 min [2]: 616 nM
- concentration at 90 min [2]: 394 nM
- concentration at 120 min [2]: 305 nM
- concentration at 240 min [2]: 465 nM
- concentration at 360 min [2]: 193 nM
- concentration at 480 min [2]: 88.5 nM
- concentration at 720 min [2]: 62.6 nM
- concentration at 1440 min [2]: 8.08 nM
- concentration at 5 min [3]: 42.5 nM
- concentration at 60 min [3]: 1210 nM
- concentration at 90 min [3]: 961 nM
- concentration at 120 min [3]: 725 nM
- concentration at 240 min [3]: 333 nM
- concentration at 360 min [3]: 148 nM
- concentration at 480 min [3]: 42 nM
- concentration at 720 min [3]: 13.1 nM
- concentration at 1440 min [3]: 6.99 nM
- concentration at 5 min [4]: 22.2 nM
- concentration at 60 min [4]: 897 nM
- concentration at 90 min [4]: 835 nM
- concentration at 120 min [4]: 758 nM
- concentration at 240 min [4]: 495 nM
- concentration at 360 min [4]: 211 nM
- concentration at 480 min [4]: 107 nM
- concentration at 720 min [4]: 25.7 nM
- concentration at 1440 min [4]: 15.6 nM
- Clearance [5]: 89 mL/min/kg
- Vss [5]: 24.325 L/kg
- Vz [5]: 35.978 L/kg
- thalf [5]: 283.79 min
- concentration at 5 min [6]: 30 nM
- concentration at 15 min [6]: 530 nM
- concentration at 30 min [6]: 1030 nM
- concentration at 15 min [7]: 399 nM
- concentration at 30 min [7]: 784 nM
- concentration at 15 min [8]: 732 nM
- concentration at 30 min [8]: 1320 nM
- concentration at 15 min [9]: 448 nM
- concentration at 30 min [9]: 990 nM
- AUC(0-t) (SD, rat, plasma, po, 20 umol/kg, AUC(0-t), SD rats, intragastric): 3.73 µM·h
- AUC (SD, rat, plasma, po, 20 umol/kg, AUCextra, SD rats, intragastric): 0.0715 µM·h
- AUC (SD, rat, plasma, po, 20 umol/kg, AUCtot, SD rats, intragastric): 3.8 µM·h
- Cmax (SD, rat, plasma, po, 20 umol/kg, Cmax, SD rats, intragastric): 1030 nM
- MRT (SD, rat, plasma, po, 20 umol/kg, MRT, SD rats, intragastric): 4.53 h
- Tmax (SD, rat, plasma, po, 20 umol/kg, Tmax, SD rats, intragastric): 0.5 h
SMILES: CNC(=O)c1ccc(-c2cnc3ncc(Cc4ccc5ncccc5c4)n3n2)cc1F [INCB28060 hydrochloride]
- exposure in rats (comparison in words) (rats, 20 μmol/kg intragastric): not as good as that of crystal form A of SPH1772 ditartrate and crystal form A of SPH1772
